In paper PMC6257796, “Effects of Eupatilin and Jaceosidin on Cytochrome P450 Enzyme Activities in Human Liver Microsomes” (Molecules, 2010):

Tests used:
Format in all cases: in vitro ADME
[1] = target: T1, CYP2C8 (Homo sapiens, UniProt P10632); assay: Kinetic analysis (Ki, inhibition type) in human liver microsomes: amodiaquine N-deethylation; details: pooled human liver microsomes
T1 construct: pooled human liver microsomes (0.25 mg/mL); tissue BD Gentest Co. H161; host or cells: pooled human liver microsomes
T1 sequence (P10632 1-490): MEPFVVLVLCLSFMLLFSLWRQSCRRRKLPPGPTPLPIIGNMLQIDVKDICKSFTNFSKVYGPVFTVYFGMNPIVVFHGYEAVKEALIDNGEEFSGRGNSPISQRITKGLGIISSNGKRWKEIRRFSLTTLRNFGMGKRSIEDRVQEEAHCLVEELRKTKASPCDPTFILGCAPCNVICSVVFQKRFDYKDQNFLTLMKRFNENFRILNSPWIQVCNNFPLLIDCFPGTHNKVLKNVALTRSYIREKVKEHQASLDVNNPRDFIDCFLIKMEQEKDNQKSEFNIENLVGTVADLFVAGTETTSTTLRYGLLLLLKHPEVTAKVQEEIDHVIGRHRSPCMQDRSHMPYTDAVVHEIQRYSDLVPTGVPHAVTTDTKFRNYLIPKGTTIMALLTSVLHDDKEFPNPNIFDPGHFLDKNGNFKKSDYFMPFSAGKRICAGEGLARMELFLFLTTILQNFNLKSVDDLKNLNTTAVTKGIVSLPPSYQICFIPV
Experimental: (§1) The Ki values and inhibition types (competitive, noncompetitive, uncompetitive, or mixed) were determined for eupatilin and jaceosidin using Lineweaver plots, Dixon plots, and secondary reciprocal plots.
(§2) The reactions were initiated by addition of NADPH at 37 °C and stopped after 15 min by placing the incubation tubes on ice and adding 100 μL of ice-cold methanol containing an internal standard. The incubation mixtures were centrifuged at 10,000' g for 5 min, and aliquots (5 μL) of the supernatants were analyzed by liquid chromatography/tandem mass spectrometry (LC/MS/MS).
(§3) All seven metabolites produced from the cocktail of CYP isoform-specific substrates were simultaneously determined by LC/MS/MS. The system consisted of a tandem quadrupole mass spectrometer (TSQ Quantum Access, ThermoFisher Scientific, CA, USA) coupled with a Nanospace SI-2 LC system. The separation was performed on an Atlantis dC18 column (5 μm, 2.1 mm i.d. × 100 mm, Waters, Waltham, MA, USA) using the gradient elution of a mixture of 5% methanol in 0.1% formic acid (mobile phase A) and 95% methanol in 0.1% formic acid (mobile phase B) at a flow rate of 0.25 mL/min: 10% mobile phase B for 1 min, 10% to 95% mobile phase B for 1 min, 95% mobile phase B for 5 min. The column and autosampler temperatures were 50 °C and 4 °C, respectively. After 1.5 min, the LC eluant was diverted from waste to the mass spectrometer that was fitted with an electrospray ionization (ESI) source and operated in the positive ion mode. The ESI source settings for the ionization of the metabolites were as follows: electrospray voltage, 5.0 kV; vaporizer temperature, 420 °C; capillary temperature 360 °C; sheath gas pressure, 35 psi; auxiliary gas pressure, 10 psi. Quantification was performed by selected reaction monitoring (SRM) of the [M+H]^+ ion and the related product ion for each metabolite. The analytical data were processed using Xcalibur® software (ThermoFisher Scientific).
(§4) The IC50 values (concentration of inhibitor causing 50% inhibition of the original enzyme activity) were calculated using WinNonlin software, a non-linear regression analysis program (Pharsight, Mountain View, CA, USA). The apparent kinetic parameters for inhibitory potential (Ki values) were estimated from the fitted curves using Enzyme Kinetics Ver. 1.3 program (Systat Software Inc., San Jose, CA, USA).

[2] = target: T2, CYP2C19 (Homo sapiens, UniProt P33261); assay: Cocktail probe assay in pooled human liver microsomes: [S]-mephenytoin 4'-hydroxylation (IC50); details: 50 μM [S]-mephenytoin
T2 construct: pooled human liver microsomes (0.25 mg/mL); tissue BD Gentest Co. H161; host or cells: pooled human liver microsomes
T2 sequence (P33261 whole entry): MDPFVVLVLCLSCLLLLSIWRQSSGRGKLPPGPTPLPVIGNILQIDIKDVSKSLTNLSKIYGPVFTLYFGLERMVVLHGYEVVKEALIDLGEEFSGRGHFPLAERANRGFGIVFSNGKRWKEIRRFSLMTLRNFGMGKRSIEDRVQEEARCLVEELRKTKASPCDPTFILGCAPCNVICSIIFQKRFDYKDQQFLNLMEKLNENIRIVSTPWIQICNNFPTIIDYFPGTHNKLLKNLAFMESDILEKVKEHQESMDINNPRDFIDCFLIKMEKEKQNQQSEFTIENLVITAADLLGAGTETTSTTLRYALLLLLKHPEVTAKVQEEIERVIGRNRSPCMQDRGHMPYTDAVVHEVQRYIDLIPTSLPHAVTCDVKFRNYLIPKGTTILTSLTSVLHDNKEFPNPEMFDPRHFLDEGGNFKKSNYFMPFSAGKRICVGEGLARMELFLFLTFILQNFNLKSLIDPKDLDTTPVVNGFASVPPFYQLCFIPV
Experimental: (§5) The inhibitory potencies (IC50 values) of eupatilin and jaceosidin were determined with CYP assays in the presence and absence of eupatilin and jaceosidin (final concentrations of 0.1−100 μM with acetonitrile concentration of less than 0.5% v/v) using pooled human liver microsomes. Phenacetin O-deethylase, coumarin 7-hydroxylase, amodiaquine N-deethylase, diclofenac hydroxylase, [S]-mephenytoin 4'-hydroxylase, bufuralol 1'-hydroxylase, and midazolam 1'-hydroxylase activities were determined as probe activities for CYP1A2, CYP2A6, CYP2C8, CYP2C9, CYP2C19, CYP2D6, and CYP3A, respectively, using cocktail incubation and tandem mass spectrometry. The incubation mixtures were prepared in a total volume of 200 μL as follows: pooled human liver microsomes (0.25 mg/mL), 1.3 mM NADPH, 3.3 mM MgCl2, 50 mM potassium phosphate buffer (pH 7.4), and a cocktail of probe substrates and various concentrations of eupatilin or jaceosidin (0.1−100 μM). […] After a 3 min preincubation at 37 °C, the reactions were initiated by adding NADPH and incubated for 20 min at 37 °C with shaking in a water bath. After incubation, the reaction was stopped by placing the tubes on ice and adding 100 μL of ice-cold acetonitrile containing internal standards (0.5 μg/mL [^13C,^15N]-acetaminophen for acetaminophen and N-desethylamodiaquine, 0.5 μg/mL [^2H5]-7-hydroxycoumarin for 7-hydroxycoumarin, 2.0 μg/mL [^13C6]-4-hydoxydiclofenac for 4-hydoxydiclofenac, 0.5 μg/mL [^2H3]-4'-hydoxymephenytoin for 4-hydoxymephenytoin and 1'-hydroxymidazolam, and 0.5 μg/mL [^2H7]-1'-hydroxybufuralol for 1'-hydroxybufuralol). The incubation mixtures were then centrifuged at 10,000× g for 5 min. All incubations were performedin triplicate.
(§6) To evaluate the effect of preincubation on inhibitory potency, eupatilin and jaceosidin (0.1−100 μM) were preincubated for 30 min with NADPH, buffer, and microsomes before the addition of the CYP probe substrates. The reaction was started by addition of the cocktail of probe substrates.
(§7) All seven metabolites produced from the cocktail of CYP isoform-specific substrates were simultaneously determined by LC/MS/MS. The system consisted of a tandem quadrupole mass spectrometer (TSQ Quantum Access, ThermoFisher Scientific, CA, USA) coupled with a Nanospace SI-2 LC system. The separation was performed on an Atlantis dC18 column (5 μm, 2.1 mm i.d. × 100 mm, Waters, Waltham, MA, USA) using the gradient elution of a mixture of 5% methanol in 0.1% formic acid (mobile phase A) and 95% methanol in 0.1% formic acid (mobile phase B) at a flow rate of 0.25 mL/min: 10% mobile phase B for 1 min, 10% to 95% mobile phase B for 1 min, 95% mobile phase B for 5 min. […] Quantification was performed by selected reaction monitoring (SRM) of the [M+H]^+ ion and the related product ion for each metabolite. […]

[3] = system: CYP3A; assay: Cocktail probe assay in pooled human liver microsomes: midazolam 1'-hydroxylation (IC50); details: for IC50, midazolam 1'-hydroxylation (CYP3A): pooled human liver microsomes, 2.5 μM midazolam
Experimental: as §5, §6, §3, §4

[4] = target: T3, CYP2A6 (Homo sapiens, UniProt P11509); assay: Cocktail probe assay in pooled human liver microsomes: coumarin 7-hydroxylation (IC50); details: for IC50, coumarin 7-hydroxylation (CYP2A6): pooled human liver microsomes, 2.5 μM coumarin
T3 construct: pooled human liver microsomes (0.25 mg/mL); tissue BD Gentest Co. H161; host or cells: pooled human liver microsomes
T3 sequence (P11509 1-494): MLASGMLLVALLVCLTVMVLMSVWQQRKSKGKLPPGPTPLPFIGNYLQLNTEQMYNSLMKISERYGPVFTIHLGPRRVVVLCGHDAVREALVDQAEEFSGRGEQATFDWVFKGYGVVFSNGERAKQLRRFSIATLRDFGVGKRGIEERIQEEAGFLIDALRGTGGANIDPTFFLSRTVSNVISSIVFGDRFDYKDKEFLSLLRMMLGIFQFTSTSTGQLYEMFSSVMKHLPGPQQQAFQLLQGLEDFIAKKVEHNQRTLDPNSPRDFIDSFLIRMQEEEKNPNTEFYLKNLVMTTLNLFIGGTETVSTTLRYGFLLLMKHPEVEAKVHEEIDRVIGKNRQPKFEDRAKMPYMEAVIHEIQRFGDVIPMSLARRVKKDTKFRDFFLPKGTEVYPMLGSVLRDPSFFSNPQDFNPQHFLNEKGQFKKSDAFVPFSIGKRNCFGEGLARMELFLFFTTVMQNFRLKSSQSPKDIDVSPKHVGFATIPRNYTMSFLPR
Experimental: as §5, §6, §3, §4

[5] = target: T4, CYP2C9 (Homo sapiens, UniProt P11712); assay: Kinetic analysis (Ki, inhibition type) in human liver microsomes: diclofenac 4-hydroxylation; details: pooled human liver microsomes
T4 construct: pooled human liver microsomes (0.25 mg/mL); tissue BD Gentest Co. H161; host or cells: pooled human liver microsomes
T4 sequence (P11712 whole entry): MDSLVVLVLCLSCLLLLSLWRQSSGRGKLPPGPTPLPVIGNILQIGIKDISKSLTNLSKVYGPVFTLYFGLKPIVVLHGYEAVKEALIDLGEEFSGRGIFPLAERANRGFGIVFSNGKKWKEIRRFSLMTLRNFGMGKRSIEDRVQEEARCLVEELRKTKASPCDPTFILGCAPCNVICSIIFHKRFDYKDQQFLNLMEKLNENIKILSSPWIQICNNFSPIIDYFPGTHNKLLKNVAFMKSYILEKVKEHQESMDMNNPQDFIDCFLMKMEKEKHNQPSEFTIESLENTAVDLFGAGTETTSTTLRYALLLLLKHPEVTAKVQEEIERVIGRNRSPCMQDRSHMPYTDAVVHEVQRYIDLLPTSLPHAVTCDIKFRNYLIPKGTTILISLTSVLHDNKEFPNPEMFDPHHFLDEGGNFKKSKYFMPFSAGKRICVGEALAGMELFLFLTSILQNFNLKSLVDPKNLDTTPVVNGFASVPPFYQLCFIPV
Experimental: as §1, §2, §3, §4

[6] = target: T5, CYP2D6 (Homo sapiens, UniProt P10635); assay: Cocktail probe assay in pooled human liver microsomes: bufuralol 1'-hydroxylation (IC50); details: 5.0 μM bufuralol
T5 construct: pooled human liver microsomes (0.25 mg/mL); tissue BD Gentest Co. H161; host or cells: pooled human liver microsomes
T5 sequence (P10635 whole entry): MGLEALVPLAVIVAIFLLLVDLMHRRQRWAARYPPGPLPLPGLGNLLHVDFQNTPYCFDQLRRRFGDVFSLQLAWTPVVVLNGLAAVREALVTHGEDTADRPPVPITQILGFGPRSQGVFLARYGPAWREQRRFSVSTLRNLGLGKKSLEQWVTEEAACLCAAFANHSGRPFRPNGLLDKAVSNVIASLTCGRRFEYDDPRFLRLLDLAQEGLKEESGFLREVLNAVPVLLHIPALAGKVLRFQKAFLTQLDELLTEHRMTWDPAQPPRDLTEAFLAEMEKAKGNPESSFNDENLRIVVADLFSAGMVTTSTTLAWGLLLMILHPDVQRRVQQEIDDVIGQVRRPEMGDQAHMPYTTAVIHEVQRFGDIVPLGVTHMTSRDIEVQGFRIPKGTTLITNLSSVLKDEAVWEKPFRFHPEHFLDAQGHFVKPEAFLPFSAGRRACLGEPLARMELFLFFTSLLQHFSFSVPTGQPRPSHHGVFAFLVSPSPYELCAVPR
Experimental: as §5, §6, §7

[7] = target: T6, CYP1A2 (Homo sapiens, UniProt P05177); assay: Kinetic analysis (Ki, inhibition type) in human liver microsomes: phenacetin O-deethylation; details: pooled human liver microsomes
T6 construct: pooled human liver microsomes (0.25 mg/mL); tissue BD Gentest Co. H161; host or cells: pooled human liver microsomes
T6 sequence (P05177 1-516): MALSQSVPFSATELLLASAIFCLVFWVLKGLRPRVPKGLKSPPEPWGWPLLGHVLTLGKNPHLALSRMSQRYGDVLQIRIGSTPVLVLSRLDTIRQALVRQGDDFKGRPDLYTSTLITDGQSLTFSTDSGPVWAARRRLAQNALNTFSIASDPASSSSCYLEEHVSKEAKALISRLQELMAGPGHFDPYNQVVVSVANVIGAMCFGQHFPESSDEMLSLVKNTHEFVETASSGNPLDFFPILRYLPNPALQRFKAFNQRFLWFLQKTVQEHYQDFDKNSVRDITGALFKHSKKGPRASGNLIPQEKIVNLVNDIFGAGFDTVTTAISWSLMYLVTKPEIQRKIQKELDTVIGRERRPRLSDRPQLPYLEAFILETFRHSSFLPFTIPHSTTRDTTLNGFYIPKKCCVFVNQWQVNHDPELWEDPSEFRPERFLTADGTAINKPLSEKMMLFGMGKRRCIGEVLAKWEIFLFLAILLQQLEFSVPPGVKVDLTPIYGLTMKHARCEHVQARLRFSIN
Experimental: as §1, §2, §3, §4

[8] = target: T5, CYP2D6; assay: Kinetic analysis (Ki, inhibition type) in human liver microsomes: bufuralol 1'-hydroxylation; details: pooled human liver microsomes
Experimental: as §1, §2, §3, §4

[9] = target: T1, CYP2C8; assay: Cocktail probe assay in pooled human liver microsomes: amodiaquine N-deethylation (IC50); details: 2.0 μM amodiaquine, no preincubation
Experimental: as §5, with “After incubation, the reaction was stopped by placing the tubes on ice and adding 100 μL of ice-cold acetonitrile containing internal standards (0.5 μg/mL [^13C,^15N]-acetaminophen for acetaminophen and N-desethylamodiaquine, 0.5 μg/mL [^2H5]-7-hydroxycoumarin for 7-hydroxycoumarin, 2.0 μg/mL [^13C6]-4-hydoxydiclofenac for 4-hydoxydiclofenac, 0.5 μg/mL [^2H3]-4'-hydoxymephenytoin for 4-hydoxymephenytoin and 1'-hydroxymidazolam, and 0.5 μg/mL [^2H7]-1'-hydroxybufuralol for 1'-hydroxybufuralol). The incubation mixtures were then centrifuged at 10,000× g for 5 min. All incubations were performedin triplicate.” left out
All seven metabolites produced from the cocktail of CYP isoform-specific substrates were simultaneously determined by LC/MS/MS. […] Quantification was performed by selected reaction monitoring (SRM) of the [M+H]^+ ion and the related product ion for each metabolite. […]

[10] = target: T6, CYP1A2; assay: Cocktail probe assay in pooled human liver microsomes: phenacetin O-deethylation (IC50); details: 50 μM phenacetin
Experimental: as §5, §6, §7

[11] = target: T2, CYP2C19; assay: Kinetic analysis (Ki, inhibition type) in human liver microsomes: [S]-mephenytoin 4'-hydroxylation; details: pooled human liver microsomes; for Inhibition type, S-mephenytoin 4'-hydroxylation (CYP2C19): Lineweaver, Dixon and secondary reciprocal plots
Experimental: as §1, §2, §3, §4

[12] = target: T4, CYP2C9; assay: Cocktail probe assay in pooled human liver microsomes: diclofenac 4-hydroxylation (IC50); details: 10 μM diclofenac
Experimental: as §5, §6, §7

[13] = Lineweaver, Dixon and secondary reciprocal plots
[14] = with 30 min preincubation in presence of NADPH

COc1ccc(-c2cc(=O)c3c(O)c(OC)c(O)cc3o2)cc1OC [eupatilin, 2-(3,4-dimethoxyphenyl)-5,7-dihydroxy-6-methoxychromen-4-one]
Ki ([1]; 0.5-5 μM amodiaquine): 102 ± 8.9 µM
Inhibition type, amodiaquine N-deethylation (CYP2C8) [1, 13]: competitive
IC50 ([2]; no preincubation): 48.1 ± 12 µM
IC50 [2, 14]: 57.7 ± 16.3 µM
Inhibition of CYP3A4-catalyzed midazolam 1'-hydroxylation at the highest concentration tested ([3]; 100 μM, human liver microsomes): negligible inhibition
IC50, midazolam 1'-hydroxylation (CYP3A) ([3]; no preincubation): No inhibition
IC50, midazolam 1'-hydroxylation (CYP3A) [3, 14]: No inhibition
Inhibition of CYP2A6-catalyzed coumarin 7-hydroxylation at the highest concentration tested ([4]; 100 μM, human liver microsomes): negligible inhibition
IC50, coumarin 7-hydroxylation (CYP2A6) ([4]; no preincubation): No inhibition
IC50, coumarin 7-hydroxylation (CYP2A6) [4, 14]: No inhibition
Ki ([5]; 1-50 μM diclofenac): 1.6 ± 0.17 µM
Inhibition type, diclofenac 4-hydroxylation (CYP2C9) [5, 13]: mixed
IC50 ([6]; no preincubation): 58.7 ± 7.6 µM
IC50 [6, 14]: 79.1 ± 7.5 µM
Ki ([7]; 10-100 μM phenacetin): 2.3 ± 0.18 µM
Inhibition type, phenacetin O-deethylation (CYP1A2) [7, 13]: competitive
Ki ([8]; 0.5-5 μM bufuralol): 94.6 ± 5.8 µM
Inhibition type, bufuralol 1'-hydroxylation (CYP2D6) [8, 13]: competitive
IC50 [9]: > 100 µM
IC50 ([10]; no preincubation): 9.4 ± 1.5 µM
IC50 [10, 14]: 11.8 ± 1.3 µM
Ki ([11]; 10-100 μM [S]-mephenytoin): 28.7 ± 3.6 µM
Inhibition type, S-mephenytoin 4'-hydroxylation (CYP2C19) [11]: mixed
Inhibition type, S-mephenytoin 4'-hydroxylation (CYP2C19) ([11]; listed as Eupatilin): mixed-type
IC50 ([12]; no preincubation): 4.1 ± 0.49 µM
IC50 [12, 14]: 4.9 ± 0.91 µM
